According to US12577213B2 (NINGBO COMBIREG PHARMACEUTICAL TECHNOLOGY CO., LTD., priority 2020, dated 2026):
Like-named read-outs stand apart in the source and are kept apart here.

Tests used:
[1] = test system: A549 (non-small cell lung cancer); experiment: NCI method SRB growth inhibition, A549; assay type: cell-based; details: Homo sapiens; A549, treated 48 hours, SRB stain
How it was run: (§1)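 SRB absorbance at 515 nm was the read-out, taken after 48 h of compound treatment and compared with plates fixed just before dosing and with vehicle-treated plates. Values are concentrations giving 50% growth inhibition (GI50), total growth inhibition (TGI) or 50% cell kill (LC50).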

[2] = test system: 786-0 (renal cancer); experiment: NCI method SRB growth inhibition, 786-0; assay type: cell-based; details: Homo sapiens; 786-0, treated 48 hours, SRB stain
How it was run: as §1

[3] = test system: HCT116 (colon cancer); experiment: NCI method SRB growth inhibition, HCT116; assay type: cell-based; details: Homo sapiens, HCT-116; HCT116, treated 48 hours, SRB stain
How it was run: as §1

[4] = test system: K562 (leukemia); experiment: NCI method SRB growth inhibition, K562; assay type: cell-based; details: Homo sapiens; K562, treated 48 hours, SRB stain
How it was run: as §1

[5] = test system: PC-3 (prostate cancer); experiment: NCI method SRB growth inhibition, PC-3; assay type: cell-based; details: Homo sapiens; PC-3, treated 48 hours, SRB stain
How it was run: as §1

[6] = test system: LOX-IMVI (melanoma); experiment: NCI method SRB growth inhibition, LOX-IMVI; assay type: cell-based; details: Homo sapiens, treated 48 hours, SRB stain
How it was run: as §1

[7] = test system: SF295 (central nervous system tumor); experiment: NCI method SRB growth inhibition, SF295; assay type: cell-based; details: Homo sapiens, SF-295; SF295, treated 48 hours, SRB stain
How it was run: as §1

[8] = test system: OVCAR-3 (ovarian cancer); experiment: NCI method SRB growth inhibition, OVCAR-3; assay type: cell-based; details: Homo sapiens; OVCAR-3, treated 48 hours, SRB stain
How it was run: as §1

[9] = Liver microsomes stability; assay type: in vitro ADME, human; details: for half-life at 1 μM: human, human liver microsomes
How it was run: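 Compound at 1 μM final incubated with 1 mg/mL human liver microsomes and 1 mM NADPH (no-NADPH control), sampled at 0, 5, 15, 30, 60 min. Remaining parent quantified by LC-MS/MS; T1/2 = 0.693/k.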

[10] = test system: xenograft of human colon cancer HCT-116 in nude mice; experiment: Xenograft tumor growth inhibition, HCT-116; assay type: in vivo, BALB/c nude mice; details: for Relative tumor proliferation rate (%) / Tumor weight inhibition rate (%): HCT116 xenograft; for efficacy evaluation on growth of HCT-116 xenograft (in words): criteria: T/C (%)≤40 and P<0.05 is effective
Experimental: The embodiment compound was prepared as a 40× stock solution of DMSO and diluted to the administered concentration with saline containing 2.5% Tween 80 (Tween 80) used before;
Male BALB/c nude mice, 4-5 weeks old, were purchased from Beijing Vital River Laboratory Animal Technology Co., Ltd, with a license No. SCXK(Beijing)2012-0001, and the mice were bred in the SPF-class laboratory animal center of Tsinghua University. The tumor lines used in the experiment were: xenograft of human lung cancer NCI-H522 in nude mice, xenograft of human colon cancer HCT-116 in nude mice.
Tumor-bearing animals with good tumor growth and overall condition were selected and sacrificed by cervical dislocation. The tumors were removed under aseptic condition, cut into tumors with 2-3 mm diameter by a scalpel, and inoculated subcutaneously behind the armpit of nude mice by trocar. The tumors grew naturally and were randomly grouped after the tumor volume grew to 105 mm^3, and the administration date of grouping was set as D0 (Day 0).
Grouping experiment, with 7-9 animals in each group, starting from now on, administration was started according to the weight of the animals. During the administration process, the long, short diameter of the tumors and weight of animals were measured every 2-3 days, and the tumor size was calculated by the formula: (½)×long diameter×(short diameter)^2, and the experiment was ended on the 27th day (D27) after grouping. At the end of the experiment, the animals were sacrificed by cervical dislocation, the tumors were peeled off and weighed, and the inhibitory rates of the drugs on tumor growth were calculated. Tumor volume (TV) and relative tumor volume (RTV) were calculated. T test was used to compare the statistical significance of the differences in tumor weight, tumor volume and RTV of the animals in each group.
Calculation formulas are as follows: average tumor weight in the vehicle control group−average tumor weight in the treatment group Tumor inhibition rate (%)=(average tumor weight in the vehicle control group−average tumor weight in the treatment group)[…](average tumor weight in the vehicle control)×100. Tumor volume (TV)=(length×width^2)/2. Relative tumor volume (RTV)=Vt/Vo (wherein, Vo is the TV measured at the time of grouping and administration, and Vt is the TV at each subsequent measurement).
[formula] • Efficacy evaluation criteria: T/C (%)>40 is invalid; • T/C (%)≤40, and P<0.05 is effective after statistical processing. 4.

[11] = 1 μM compound, 1 mg/mL human liver microsomes, 1 mM NADPH
[12] = 1 μM compound, 1 mg/mL human liver microsomes, 1 mM NADPH, read-out: T½ of HLM
[13] = as repeated in Table 4, read-out: T½ of HLM (in vitro)
[14] = 20 mg/kg, intravenous injection every other day × 3
[15] = 16 mg/kg, intravenous injection every other day × 9
[16] = 20 mg/kg, intravenous injection every other day × 9

| microsomal CLint at 1 μM [9, 11] | half-life at 1 μM [9, 12] | half-life at 1 μM [9, 13] | SMILES | GI50 [1] | GI50 [2] | GI50 [3] | GI50 [4] | GI50 [5] | GI50 [6] | GI50 [7] | GI50 [8] | Relative tumor proliferation rate (%) [10, 14] | Tumor weight inhibition rate (%) [10, 14] | efficacy evaluation on growth of HCT-116 xenograft (in words) [10] | Relative tumor proliferation rate (%) [10, 15] | Tumor weight inhibition rate (%) [10, 15] | Relative tumor proliferation rate (%) [10, 16] | Tumor weight inhibition rate (%) [10, 16] |
| --- | --- | --- | --- | --- | --- | --- | --- | --- | --- | --- | --- | --- | --- | --- | --- | --- | --- | --- |
| 3.2 µL/min/mg | 3.62 h | 3.62 h | [2H]C([2H])([2H])Oc1cc(C(=O)Nc2cc3c(cc2Oc2cc(C)cc(C)c2)C(=O)N[C@@H](CC(=O)N(C([2H])([2H])C([2H])([2H])[2H])C([2H])([2H])C([2H])([2H])[2H])C(=O)N3)c(Br)c(OC([2H])([2H])[2H])c1OC([2H])([2H])[2H] [Compound 5, (S)-2-bromo-N-[3-[2-[bis(pentadeuteroethyl)amino]-2-oxoethyl]-7-(3,5-dimethylphenoxy)-2,5-dioxo-2,3,4,5-tetrahydro-1H-benzo[e][1,4]diazepin-8-yl]-3,4,5-tris(trideuteromethoxy)benzamide] | < 5 nM | 26.1 nM | < 5 nM | < 5 nM | < 5 nM | < 5 nM | 17.4 nM | < 5 nM | 34% | 69.6% | inhibit the growth | – | – | – | – |
| 11.6 µL/min/mg | 0.948 h | 0.997 h | [2H]C([2H])([2H])Oc1cc(C(=O)Nc2cc3c(cc2Oc2cc(C)cc(C)c2)C(=O)N(C)[C@@H](CC(=O)N(C)C)C(=O)N3)c(Br)c(OC([2H])([2H])[2H])c1OC([2H])([2H])[2H] [Compound 16, (S)-2-bromo-N-[3-[2-(dimethylamino)-2-oxoethyl]-7-(3,5-dimethylphenoxy)-4-methyl-2,5-dioxo-2,3,4,5-tetrahydro-1H-benzo[e][1,4]diazepin-8-yl]-3,4,5-tris(trideuteromethoxy)benzamide] | < 5 nM | 11.2 nM | < 5 nM | < 5 nM | < 5 nM | < 5 nM | 7.6 nM | < 5 nM | – | – | inhibit the growth | 38% | 63.4% | – | – |
| 2.1 µL/min/mg | 5.5 h | 5.5 h | [2H]C([2H])([2H])Oc1cc(C(=O)Nc2cc3c(cc2Oc2cc(C)cc(C)c2)C(=O)N[C@@H](CC(=O)N(C)C)C(=O)N3)c(Br)c(OC([2H])([2H])[2H])c1OC([2H])([2H])[2H] [Compound 20, (S)-2-bromo-N-[3-[2-(dimethylamino)-2-oxoethyl]-7-(3,5-dimethylphenoxy)-2,5-dioxo-2,3,4,5-tetrahydro-1H-benzo[e][1,4]diazepin-8-yl]-3,4,5-tris(trideuteromethoxy)benzamide] | < 5 nM | 26.5 nM | < 5 nM | < 5 nM | < 5 nM | < 5 nM | 19.9 nM | < 5 nM | – | – | inhibit the growth | – | – | 30% | 75.4% |
